According to patent publication US20120107323A1, “KINASE PROTEIN BINDING INHIBITORS” (University of Florida, priority 2009, published 2012):

How the values were obtained:
[1] = tested on: KYSE70 esophageal cancer cells; assay: Cell viability (MTT), KYSE70; assay type: cell-based
Description: Cell viability (MTT) and CFSE Proliferation assay: Cells were plated in 96-well plates and let adhere overnight. After cell treatment, cell viability was measured by 3-(4,5-dimethylthiazol-2-yl)-2,5-diphenyl tetrazolium bromide (MTT) assay (CellTiter 96® Aqueous, Promega, Madison, Wis.).
Cell viability and detachment assays: After cells were treated with siRNA transfection, cell viability was measured by 3-(4,5-dimethylthiazol2-yl)-2,5-diphenyl tetrazolium bromide (MTT) assay (CellTiter 96® AQueous, Promega, Madison, Wis.). Briefly, 20 μl of the tetrazolium compound was added to each well. The cells were then incubated at 37° C. for 1 h. The plate was read at 490 nm with a plate reader to determine the viability. In detachment assays, detached and attached cells were harvested separately and counted in a hemocytometer. The percentage of detachment was calculated by dividing the number of detached cells by the total number of cells. Apoptosis assays: After treatment, attached and detached cells were collected, counted and prepared for terminal uridine deoxynucleotidyl transferase (TUNEL) assay by utilizing an APO-BRDU kit (BD Pharmingen, San Diego, Calif.) according to the manufacturer's instructions. Stained cells were analyzed with a fluorescence-activated cell sorting-Calibur flow cytometer (BD Biosciences). Calculation of the percentage of apoptotic cells in the sample was completed with CellQuest software (BD Biosciences). Apoptotic cells were also analyzed by Hoechst staining. Hoechst 33342 ([…]) was added to the fixed cells and the specimens were mounted on glass coverslips. The slides were viewed under the Zeiss microscope for apoptotic nuclei. The percent of apoptotic cells was calculated as the ratio of apoptotic cells to total number of cells.
In addition, the effect of INT2-31 on cell viability of esophageal, pancreatic and breast cancer cell lines was analyzed and the IC50 value for each cell line was determined, as shown in Table 1. […] Similar to melanoma results, INT2-31 inhibits viability more in cancer cells compared to normal cells. Sensitivity of the cells to INT2-31 varied and directly correlated to the FAK and IGF-1R expression level of the cells.

[2] = tested on: FAK and IGF-1R pathway effectors; assay: Western blot of signaling in melanoma cell lines; assay type: cell-based, human
Source text: Computational Docking The crystal structures of the N-terminal domain of FAK (PDB code 2AL6) (22) and the kinase domain of IGF-1R(PDB 1P40A) (23) were utilized for in silico molecular modeling of their interaction as previously described. The three-dimensional coordinates of compound NSC344553 (INT2-31), obtained from the database of the National Cancer Institute, Developmental Therapeutics Program (NCI/DTP), were docked onto the predicted interface of the amino-terminus of FAK (amino acids 127-243) with the intracytoplasmic portion of IGF-1R (21). All docking calculations were performed with the University of California-San Francisco DOCK 5.1 program, using a clique-matching algorithm to orient small molecule structures with sets of spheres that describe the target sites on FAK (37). 100 orientations were created for NSC344553 in the target site and were scored using the computer program grid-based scoring function. Docking calculations were performed on the University of Florida High Performance Computing supercomputing cluster (http:hpc.ufl.edu). The intermolecular energies for all configurations of NSC 344553 in binding to FAK-NT2 were calculated as the sum of electrostatic and van der Waals energies. These energy terms were evaluated as correlation functions, which were computed efficiently with Fast Fourier Transforms. Production of GST-fusion proteins: The FAK-GST plasmid constructs (pGEX vector) were kindly provided by Dr. Elena Kurenova (Roswell Park Cancer Institute, Buffalo, N.Y.). His-tagged IGF-1R protein was purchased from Blue Sky Biotechnology (Worchester, Mass.). The GST-fusion proteins (FAK fragments) were expressed in BL21 (DE3) Escherichia coli bacteria by incubation with 0.2 mM isopropyl b-D-galactopyranoside (IPTG) for 6 h at 37° C. The bacteria were lysed by sonication, and the fusion proteins were purified with glutathione-Sepharose 4B beads (GE Healthcare, NJ). Pull-down assay: For the pull-down binding assay, His-tagged IGF-1R fragment protein (200 ng) were precleared with GST immobilized on glutathione-Sepharose 4B beads. The precleared His-tagged protein was incubated with 0.2 μg of GST-FAK fusion protein immobilized on the glutathione-Sepharose 4B beads for 1 h at 4° C. and then washed 3× with PBS. Equal amounts of GST-fusion proteins were used for each binding assay. Bound proteins were boiled in 6× Laemmli buffer and analyzed by SDS-PAGE and Western blotting. Immunoprecipitation and western blotting: Cells were washed twice with ice cold 1×PBS and lysed in buffer containing 20 mM Tris, pH 7.4, 150 mM NaCl, 1% NP-40, 5 mM EDTA acid, protease inhibitors (Complete™ Protease Inhibitor, Roche, N.J.) and phosphatase inhibitors (Calbiochem, Calif.). For immunoprecipitation, 100-200 μg of total cell extract was used for each sample. The extracts were incubated with 1 μg of antibody overnight at 4° C. Next, 25 μl of protein A/G-agarose beads were added and the samples were incubated for 2 h at 4° C. The precipitates were washed 4× with lysis buffer and samples containing 30 μg of protein were resolved by SDS-PAGE. The intensity of the bands in the western blots was measured with scion image analysis software program. Short hairpin RNA Transfection of cells: Control shRNA (mock) and FAK shRNAs was obtained from Open Biosystems. The sequences of short hairpin RNAs against human FAK were: (5′-[…] TCCAATCGTTTTG-3′; 5′-[…]-3′) and control shRNA (mock) (5′-[…]-3′). For the transfection of cells (2×10^5 cells/well) were seeded into 6-well plates in 2 ml medium one day prior to transfection. According to the protocols of the manufacturer, cells were transfected using Lipofectamine 2000 reagent (Invitrogen, CA).
Western blotting: boiled samples containing 30 μg of protein were resolved by sodium dodecyl sulfate-polyacrylamide gel electrophoresis followed by transferring to polyvinylidene difluoride membrane (Bio-Rad, Hercules, Calif.). […]

CSc1ncnc2c1ccn2C1O[C@H](COP(=O)(O)O)[C@@H](O)[C@H]1O (stereo partly drawn) [INT2-31, 4-(Methylthio)-7-(5-O-phosphono-D-ribofuranosyl)-{7H-Pyrrolo[2,3-d]pyrimidine}]
IC50 ([1]; Homo sapiens, KYSE-70, KYSE70, 72 hours, read-out: IC50 of INT2-31, cell viability): 4.6 µM | effect of combination with 5-FU on cell viability ([1]; KYSE 70, 0.5 and 1 μM INT2-31): synergistic effects | sensitivity of cells to single-agent treatment ([1]; KYSE 70, 72 hours): sensitive | dose necessary to significantly decrease p-Akt ([2]; A375 cells): 1 to 5 µM | time course of Akt phosphorylation ([2]; C8161, 5 μM, 24, 48 and 72 hours): some dephosphorylation after 24 hours of treatment with a sustained effect at 72 hours | dose necessary to significantly decrease p-Akt ([2]; SK-MEL-28 cells): 5 to 10 µM | p-ERK ([2]; all cell lines, higher doses): slight decrease | constitutive and IGF-1 induced signaling to AKT ([2]; three melanoma cell lines): consistent inhibition | constitutive or IGF-1 induced phosphorylation of IGF-1R ([2]; three melanoma cell lines): no significant effect | constitutive phosphorylation of FAK ([2]; three melanoma cell lines): no significant effect
